Assay results: article PMC13080581, “Identification and characterization of vasoactive intestinal peptide receptor antagonists with high-affinity and potent anti-leukemia activity” (The Journal of Biological Chemistry, 2025)
Ends that are not written are not given here.

Legend:
[1] = in vitro; type: in vitro ADME; conditions: human, plasma
Text: Data were plotted using GraphPad Prism.

[2] = tested on: C1498ff cells; assay: C1498ff leukemia model in B6 albino mice, ANT308 schedules; type: in vivo, mouse; conditions: high-dose (100 μg)
Procedure: All experimental procedures involving animals were approved by the Institutional Animal Care and Use Committee (IACUC) at Emory University. On day 0, B6 mice were injected by tail vein injection (i.v.) with 1 × 10^6 C1498 cells. DBA/2 mice were injected subcutaneously (s.c.) with 1 x 10^5 P815-luciferase mastocytoma cells. Growth of luciferase + C1498ff in B6 albino recipients was assessed by bioluminescent imaging (BLI) after mice were anesthetized, injected intraperitoneally (i.p.) with luciferin substrate (15 μg/g mouse), and imaged using an IVIS imaging system, starting at day 6 before treatment and continuing once weekly. Albino B6 mice surviving to >60 days without evidence of AML (by luciferase assay) received a second injection of a two-fold higher dose of C1498 (2 × 10^6 cells). DBA/2 mice that received P815 cells and treatment with ANT308, and survived past 60 days, were rechallenged using 2 x 10^5 P815 cells. Lymphocyte kinetics and C1498 leukemia cell burden were analyzed weekly through pterygoid venous plexus blood collection in CD45.1+ B6.SJL recipients; CD45.2 C1498 tumor cells were differentiated from CD45.1 host cells by flow cytometry. Mice that reached endpoint conditions were euthanized and counted as dead on the next day. […]

[3] = in vivo; conditions: mouse, iv
Procedure: (§1) Plasma was collected at multiple time points post-injection and analyzed by SDS-PAGE using 12% polyacrylamide gel. Densitometry was performed using ImageJ and % peptide remaining was plotted using GraphPad Prism. The images were acquired using BioRad ChemiDoc Touch Imaging System with Image Lab Touch Software.

[4] = tested on: human T cells; conditions: 3 µM
[5] = In vivo plasma half-life of 6xHis-tagged peptides after i.v. injection, western blot; conditions: mouse, iv
Procedure: as §1

[6] = biological target: T1, VPAC1 on Vipr2 KO murine T-cells (Mus musculus, UniProt P97751); assay: Immunostaining colocalization with VPAC1 on Vipr2 KO murine T-cells; type: cell-based; conditions: Pearson's correlation
T1 construct: Vipr2 knockout (KO) T-cells stained for VPAC1 (green); endogenous in cells; host or cells: T cells from Vipr2 knockout mice
T1 sequence (P97751 31-459): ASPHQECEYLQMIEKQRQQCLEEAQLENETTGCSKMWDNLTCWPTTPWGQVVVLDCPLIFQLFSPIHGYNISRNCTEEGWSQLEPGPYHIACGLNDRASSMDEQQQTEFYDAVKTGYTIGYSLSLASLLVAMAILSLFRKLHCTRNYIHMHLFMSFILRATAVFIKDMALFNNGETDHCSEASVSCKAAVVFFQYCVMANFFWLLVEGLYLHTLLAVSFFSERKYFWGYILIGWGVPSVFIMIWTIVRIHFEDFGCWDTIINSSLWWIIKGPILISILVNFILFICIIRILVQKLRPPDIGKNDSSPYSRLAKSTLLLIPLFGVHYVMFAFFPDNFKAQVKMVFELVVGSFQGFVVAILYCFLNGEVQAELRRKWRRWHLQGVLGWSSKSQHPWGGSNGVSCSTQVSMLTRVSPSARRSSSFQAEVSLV
Procedure: Merge + NucleusSupplementary Figure 5. Immunostaining showing 6xHis-ANT308, 6xHis-VIP, and 6xHis-Scrambled-sequence peptides colocalization with VPAC1 on murine T-cells surface. Isolated T-cells from naïve wild-type (WT) C57BL/6 mice were activated with α-CD3/α-CD28 beads and incubated with 10µM (A-F) ANT308-6xHis, (G-L) VIP-6xHis and (M-R) VIP fully SCRAM-6xHis in the presence of IL-2 (30 IU/mL) for 1 hour. The cells were fixed with 4% Paraformaldehyde, stained with VPAC1 (green), 6xHis-tag (magenta) & Hoechst (blue) and visualized on Cell-Tak coated glass-bottom plates. (A-C, G-I and M-O) en face view, (D,J & P) representative field view, (E, K & Q) 3D view, (F, L & R) line scan profiles showing colocalization patterns of ANT308-6xHis, VIP-6xHis and VIP-fully scrambled-6xHis with VPAC1 on T-cell membrane. Relative fluorescence intensity (RFI), arbitrary unit. (S) Quantification of co-localization using Pearson’s correlation coefficient (R-value). Data are shown as mean ± SD with individual data points (n=10). Statistical significance was determined by one-way Anova with post-hoc multiple comparisons. **** p < 0.0001, *** p < 0.001. Scale 2.5µm.
Supplementary Figure 6. […] (K) Quantification of co-localization using Pearson’s correlation coefficient (R-value). […] Statistical significance was determined by one-way Anova with post-hoc multiple comparisons. **** p < 0.0001. […]

[7] = biological target: VIP receptor (VIP-R) on human T cells (human (endogenous in human T cells)) (UniProt P32241)
VIP receptor (VIP-R) on human T cells (human (endogenous in human T cells)), sequence (P32241 31-457): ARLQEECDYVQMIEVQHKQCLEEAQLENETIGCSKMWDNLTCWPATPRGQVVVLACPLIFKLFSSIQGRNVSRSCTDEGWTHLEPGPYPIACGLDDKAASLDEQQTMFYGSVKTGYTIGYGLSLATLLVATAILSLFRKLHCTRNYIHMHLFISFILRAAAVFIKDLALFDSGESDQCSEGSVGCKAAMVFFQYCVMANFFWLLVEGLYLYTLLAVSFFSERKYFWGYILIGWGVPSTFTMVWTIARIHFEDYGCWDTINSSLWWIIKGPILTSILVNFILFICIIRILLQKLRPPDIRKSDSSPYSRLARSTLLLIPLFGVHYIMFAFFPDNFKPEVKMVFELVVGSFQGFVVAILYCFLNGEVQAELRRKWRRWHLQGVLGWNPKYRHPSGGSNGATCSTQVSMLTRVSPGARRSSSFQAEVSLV

With `CC[C@H](C)[C@H](NC(=O)[C@H](CO)NC(=O)[C@H](CC(N)=O)NC(=O)[C@H](CC(C)C)NC(=O)[C@H](Cc1ccc(O)cc1)NC(=O)[C@H](CCCCN)NC(=O)[C@H](CCCCN)NC(=O)[C@@H](NC(=O)[C@H](C)NC(=O)[C@H](CCSC)NC(=O)[C@H](CCC(N)=O)NC(=O)[C@H](CCCCN)NC(=O)[C@H](CCCNC(=N)N)NC(=O)[C@H](CC(C)C)NC(=O)[C@H](CCCNC(=N)N)NC(=O)[C@@H](NC(=O)[C@H](Cc1ccc(O)cc1)NC(=O)[C@H](CC(N)=O)NC(=O)[C@H](CC(=O)O)NC(=O)[C@@H](NC(=O)[C@H](Cc1ccccc1)NC(=O)[C@@H](NC(=O)[C@H](C)NC(=O)[C@H](CC(=O)O)NC(=O)[C@H](CO)NC(=O)[C@@H](N)Cc1c[nH]cn1)C(C)C)[C@@H](C)O)[C@@H](C)O)C(C)C)C(=O)N[C@@H](CC(C)C)C(=O)N[C@@H](CC(N)=O)C(=O)N[C@@H](Cc1c[nH]cn1)C(=O)N[C@@H](Cc1c[nH]cn1)C(=O)N[C@@H](Cc1c[nH]cn1)C(=O)N[C@@H](Cc1c[nH]cn1)C(=O)N[C@@H](Cc1c[nH]cn1)C(=O)N[C@@H](Cc1c[nH]cn1)C(N)=O` [VIP-6xHis, reference compound] the half-life [1] was roughly 15 min.

With “KPRRPYTSDYTRLRKQMAVKKYLNLILN-NH2 [ANT308]” the “toxic effects in weight or behavior of treated mice” value [2] was “did not produce any observable toxic effects”.

With “KPRRPYTSDYTRLRKQMAVKKYLNLILNHHHHHH-NH2 [ANT308-6xHis]” the half-life [3] was roughly 15 min and the half-life [1] was roughly 15 min.

Work on “KPRRPYTVNYTSLRKQIAVKKYLMLILN-NH2 [ANT195]” yielded a T cell viability [4] of roughly 30%.

In the case of “YDDHTKLKINTARLVSAQSNVFNMLKYRHHHHHH-NH2 (C-terminus assumed) [VIP fully SCRAM-6xHis]”, the half-life [5] is reported as roughly 30 min and the “co-localization with VPAC1 in Vipr2 KO murine T-cells” value [6] is reported as “shows no overlap”.

Molecule KPRRPYTSDYTRLRKQMAVKKYLNLILN-NH2 [ANT308] has a CD69 expression on CD4+ or CD8+ pooled human T cells treated with increasing concentrations of ANT308 (T cell activation, flow cytometry) [7] of 0.3 to 0.4 µM.
